Results taken from US8557738B2, “Nitrogen-containing heterocyclic derivative and fungicide for agricultural and horticultural use” (Nippon Soda Co., Ltd., priority 2008, dated 2013).

melting point	Structure (SMILES)
149 to 151 °C	CC1(C)CN=C(c2cnc3ccccc3c2)c2cccc(Cl)c2O1.Cl
129 to 131 °C	CC1(C)CN=C(c2cnc3ccccc3c2)c2cccc(Cl)c2O1.O=C(O)C(F)(F)F
174 to 176 °C	CC1(C)CN=C(c2cnc3c(F)cccc3c2)c2cccc(F)c2O1.O=C(O)C(F)(F)F
123 to 125 °C	CC1(Cl)CN=C(c2cnc3ccccc3c2)c2cccc(F)c2O1 (centres unmarked) [B1-30, 2-Chloro-9-fluoro-2-methyl-5-(3-quinolinyl)-2,3-dihydro-benzo[f][1,4]oxazepine]
165 to 167 °C	CC1(C)CN=C(c2cnc3c(F)cccc3c2)c2ccccc2O1 [B1-37, 5-(8-Fluoro-quinolin-3-yl)-2,2-dimethyl-2,3-dihydro-benzo[f][1,4]oxazepine]
171 to 173 °C	CC1(C)CN=C(c2cnc3c(F)cccc3c2)c2cccc(F)c2O1 [B1-38, 2,2-Dimethyl-9-fluoro-5-(8-fluoro-quinolin-3-yl)-2,3-dihydro-benzo[f][1,4]oxazepine]
190 to 191 °C	CC1(C)CN=C(c2cnc3c(F)cccc3c2)c2cccc(Cl)c2O1 [B1-39, 9-Chloro-5-(8-fluoro-quinolin-3-yl)-2,2-dimethyl-2,3-dihydro-benzo[f][1,4]oxazepine]
145 to 147 °C	Cc1cccc2cc(C3=NCC(C)(C)Oc4c(Cl)cccc43)cnc12 [B1-40, 9-Chloro-2,2-dimethyl-5-(8-methylquinolin-3-yl)-2,3-dihydro-benzo[f][1,4]oxazepine]
214 to 217 °C	CC1(C)CN=C(c2cnc3c(Cl)cccc3c2)c2cccc(Cl)c2O1 [B1-41, 2,2-Dimethyl-9-chloro-5-(8-chloro-quinolin-3-yl)-2,3-dihydro-benzo[f][1,4]oxazepine]
155 to 157 °C	CC1(C)CN=C(c2cnc3c(Cl)cccc3c2)c2ccccc2O1 [B1-46, 5-(8-Chloro-quinolin-3-yl)-2,2-dimethyl-2,3-dihydro-benzo[f][1,4]oxazepine]

More lines, now with the values behind:

Structure (SMILES)	melting point
Cc1cc(C2=NCCOc3c(Cl)cccc32)cnc1C	142 to 143 °C
CC1(C)CN=C(c2cnc3c(F)cccc3c2)c2cccc(F)c2O1.Cl	164 to 166 °C
Fc1cccc2c1C(c1cnc3ccccc3c1)=NCCO2	126 to 128 °C
CC1N=C(c2cnc3ccccc3c2)c2ccccc2OC1(C)C (centres unmarked) [B1-42, 5-(3-Quinolinyl)-2,2,3-trimethyl-2,3-dihydro-benzo[f][1,4]oxazepine]	139 to 142 °C
CC1(C)N=C(c2cnc3ccccc3c2)c2cccc(F)c2OC1(C)C [B1-43, 9-Fluoro-5-(3-quinolinyl)-2,2,3,3-tetramethyl-2,3-dihydro-benzo[f][1,4]oxazepine]	132 to 133 °C
CC1(C)N=C(c2cnc3c(F)cccc3c2)c2cccc(F)c2OC1(C)C [B1-45, 9-Fluoro-5-(8-fluoro-quinolin-3-yl)-2,2,3,3-tetramethyl-2,3-dihydro-benzo[f][1,4]oxazepine]	144 to 145 °C
CCC1(C)CN=C(c2cnc3c(F)cccc3c2)c2ccccc2O1 (centres unmarked) [B1-47, 2-Ethyl-5-(8-fluoro-quinolin-3-yl)-2-methyl-2,3-dihydro-benzo[f][1,4]oxazepine]	93 to 95 °C
CCC1(C)CN=C(c2cnc3c(F)cccc3c2)c2cccc(Cl)c2O1 (centres unmarked) [B1-48, 9-Chloro-2-ethyl-5-(8-fluoro-quinolin-3-yl)-2-methyl-2,3-dihydro-benzo[f][1,4]oxazepine]	144 to 146 °C
CCC1(C)CN=C(c2cnc3c(F)cccc3c2)c2cccc(F)c2O1 (centres unmarked) [B1-49, 2-Ethyl-9-fluoro-5-(8-fluoro-quinolin-3-yl)-2-methyl-2,3-dihydro-benzo[f][1,4]oxazepine]	140 to 142 °C
CC1(c2ccccc2)CN=C(c2cnc3ccccc3c2)c2ccccc2O1 (centres unmarked) [B1-52, 2-Methyl-2-phenyl-5-quinolin-3-yl-2,3-dihydro-benzo[f][1,4]oxazepine]	196 to 197 °C
